Key:
[1] = test system: spleen cells (antibody production, direct PFC count); assay: Plaque Forming Cell Assay (inhibition of antibody production); assay type: cell-based, Balb/c strain mice; settings: Mus musculus, Erythrocyte, 120 h, spleen cells of mice sensitized with sheep erythrocytes, cultured 5 days, read-out: Inhibition rate; for inhibition at 10 µM: 10^-5 M; for inhibition at 0.1 µM: 10^-7 M
[2] = test system: spleen cells (antibody production, direct PFC count); assay: as above; assay type: cell-based, Balb/c strain mice; settings: Mus musculus, Erythrocyte, 120 h; 10^-6 M; spleen cells of mice sensitized with sheep erythrocytes, cultured 5 days; read-out: Inhibition rate
Description: The plaque forming cell assay was carried out by the following manner with reference to the method of Jerne et al. [Science, 140, 405 (1963) ]and the method of Yamamoto et al. [Drugs Experimental Clinical Research, III(1), 5 (1982)].
Male Balb/c strain mice (7-week-old) (Charles River Co.) were sensitized with 1×10^8 sheep erythrocytes (product of Biotest Research Institute) administered via the caudal vein, and the spleens were extirpated after 6 or 7 days after the sensitization. The extirpated spleens were immersed in Hanks' solution (Nissui Seiyaku) to make a cell suspension, which was then filtered, followed by centrifugal separation at 1200 rpm for 5 minutes. After centrifugal separation, the supernatant was discarded and the precipitate was treated with Tris·NH4 Cl solution to remove the erythrocytes, and then washed three times with Hanks' solution. After discarding the supernatant, the cells were suspended in an RPMI-1640 medium (Nissui Seiyaku) containing 10% bovine fetal serum (Gibco Co. ), 50 μg/ml of streptomycin (Meiji Seika), […] of penicillin (Meiji Seika) and 2mercaptoethanol (5×10^-5 M). In each well of a micro culture plate (NUNK Co., Ltd., 24 wells) were put 2 ml of the mixture of the cell suspension containing 1×10^7 of spleen cells, 5×10^6 sheep erythrocytes and a test compound solution (10^-6 M) obtained by diluting the test compound dissolved in dimethylsulfoxide (10^-2 M) with the above mentioned RPMI-1640, and the cells were cultured at 37° C. for 5 days.
After the completion of the culturing, the cells were subjected to centrifugal separation at 2000 rpm for 5 minutes, and the resulting supernatant was removed. The precipitate was suspended in 1 ml of Hanks' solution, again subjected to centrifugal separation, suspended in 1 ml of Hanks' solution, and then, 50 μl of the suspension and 50 μl of sheep erythrocytes were added to 400 μl of 0.25% agarose/Hanks' solution heated to 50° C. in advance, and the mixture was scattered on a glass slide, placed on a plaque assay plate, and together with guinea pig complement (Cedarlene Institute) diluted 40-fold with a phosphate buffer solution, incubated at 37° C. for 1 to 2 hours. The number of the appearing direct plaque cells (direct PFC count) in suspension was counted.
The inhibition rate of the antibody production of the test compound was determined by the following equation. [formula]
The compound used for comparison was 5,6-dihydro-9-fluoro-3-phenylbenz[c]acridine-7-carboxylic acid [Japanese Published Unexamined Patent Application No. 233661/90, hereinafter referred to as Compound (A)]represented by formula (A). [drawing 12]
PFC count in control means PFC count in the absence of the test compound (dimethylsulfoxide alone).

Row | Structure (SMILES) | inhibition at 10 µM [1] [%] | inhibition at 1 µM [2] [%] | inhibition at 0.1 µM [1] [%]
1 | O=C(O)c1c2c(nc3ccc(F)cc13)-c1ccc(-c3ccccc3)cc1CC2 [A, 5,6-dihydro-9-fluoro-3-phenylbenz[c]acridine-7-carboxylic acid, reference compound] | 78.6 | 45.9 | –
2 | O=C(O)c1c2c(nc3ccc(F)cc13)-c1ccc(-c3ccccc3F)cc1CC2 [Compound 2, 5,6-Dihydro-9-fluoro-3-(2-fluorophenyl) ben z [c]acridine-7carboxylicacid] | 99.4 | 94.4 | 57.1
3 | O=C(O)c1c2c(nc3ccc(F)cc13)-c1ccc(-c3ccccc3F)cc1CCC2 [Compound 3, 6,7-Dihydro-10-fluoro-3-(2-fluorophenyl) -5Hbenzo [6, 7]cyclohepta [1,2-b]quinoline-8-carboxylic acid] | 83.5 | 80.3 | 55.4
4 | CC1Cc2c(nc3ccc(F)cc3c2C(=O)O)-c2ccc(-c3ccccc3F)cc21 (centres unmarked) [Compound 5, 5,6-Dihydro-9-fluoro-3-(2-fluorophenyl)-5methylbenz[c]acridine-7-carboxylicacid] | 98.7 | 64.6 | –
5 | CC1(C)Cc2c(nc3ccc(F)cc3c2C(=O)O)-c2ccc(-c3ccccc3F)cc21 [Compound 7] | 98.1 | 75.3 | –
6 | CC1Cc2cc(-c3ccccc3F)ccc2-c2nc3ccc(F)cc3c(C(=O)O)c21 (centres unmarked) [Compound 8] | 98.7 | 80.2 | –
